In patent US20260199367A1, “PLK1 DEGRADATION INDUCING COMPOUNDS WITH INCREASED RIGIDITY” (UPPTHERA, INC., priority 2022, published 2026):

Experiments:
Format in all cases: cell-based
[1] = test system: NCI-H526 (H526) cell line; experiment: Cell viability assay for NCI-H526 cell line; conditions: Homo sapiens, NCI-H526, 120 h, 5 days, EZ-Cytox, 0.46-3000 nM
Summary of the method: (§1)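 Cells seeded at 3×10^4 per well in RPMI 1640 with FBS, treated with DMSO-dissolved compound in 3-fold dilutions from 3000 nM to 0.46 nM for 5 days. Viability read by EZ-Cytox (4 h) absorbance at 450 nm; IC50 reported in grades A/B/C.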

[2] = molecular target: T1, PLK1 (Homo sapiens, UniProt P53350); experiment: Luciferase assay for PLK1 in HeLa LgBit (PLK1-HiBit KI) cell line; conditions: released after thymidine block, compound 300 nM, luminescence after 9 hours
T1 construct: endogenous in cells; host or cells: HeLa LgBit (PLK1-HiBit KI): HeLa cells stably expressing LgBit, with CRISPR/Cas9 knock-in of HiBit at the endogenous PLK1 locus
Summary of the method: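 HeLa cells stably expressing LgBit, with HiBit knocked in at the endogenous PLK1 C-terminus. Cells synchronised by 2 mM thymidine block for 24 h, released, then cultured 18 h. Endurazine added, compounds at 300 nM, luminescence tracked in real time at 470-480 nm.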

[3] = test system: NCI-H69 (H69) cell line; experiment: Cell viability assay for NCI-H69 cell line; conditions: Homo sapiens, NCI-H69, 120 h, 5 days, EZ-Cytox, 0.46-3000 nM
Summary of the method: as §1

T1 sequence (P53350 whole entry): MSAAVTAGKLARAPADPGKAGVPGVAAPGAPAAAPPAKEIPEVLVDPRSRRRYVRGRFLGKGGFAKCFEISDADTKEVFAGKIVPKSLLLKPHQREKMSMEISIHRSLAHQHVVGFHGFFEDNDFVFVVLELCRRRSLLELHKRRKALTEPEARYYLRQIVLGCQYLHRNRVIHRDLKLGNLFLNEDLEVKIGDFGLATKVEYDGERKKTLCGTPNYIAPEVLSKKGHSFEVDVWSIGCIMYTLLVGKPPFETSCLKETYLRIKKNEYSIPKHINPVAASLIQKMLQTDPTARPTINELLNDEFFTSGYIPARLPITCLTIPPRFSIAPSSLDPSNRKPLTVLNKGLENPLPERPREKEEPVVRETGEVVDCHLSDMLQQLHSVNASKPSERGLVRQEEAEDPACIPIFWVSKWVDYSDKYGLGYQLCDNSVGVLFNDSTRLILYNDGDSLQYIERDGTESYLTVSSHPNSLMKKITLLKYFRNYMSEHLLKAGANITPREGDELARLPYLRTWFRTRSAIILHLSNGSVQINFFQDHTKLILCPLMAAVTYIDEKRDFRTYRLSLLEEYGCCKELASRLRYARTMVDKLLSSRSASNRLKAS

SMILES: CC[C@@H]1C(=O)N(C)c2cnc(Nc3ccc(C(=O)NC4CCN(C(=O)CCN5CCN(c6ccc(NC7CCC(=O)NC7=O)cc6)CC5)CC4)cc3OC(F)(F)F)nc2N1C1CCCC1 (stereo partly drawn) [Compound 14, 4-(((R)-8-cyclopentyl-7-ethyl-5-methyl-6-oxo-5,6,7,8-tetrahydropteridin-2-yl)amino)-N-(1-(3-(4-(4-((2,6-dioxopiperidin-3-yl)amino)phenyl)piperazin-1-yl)propanoyl)piperidin-4-yl)-3-(trifluoromethoxy)benzamide]
- IC50 [1]: < 20 nM
- Value (luminescence value, PLK1-HiBit) [2]: 0.269
- IC50 [3]: ≤ 50 nM
